We go through 29 molecules from patent US20220340875A1, “METHODS OF CULTURING AND/OR EXPANDING STEM CELLS AND/OR LINEAGE COMMITTED PROGENITOR CELLS USING AMIDO COMPOUNDS” (IDEAYA BIOSCIENCES, INC., priority 2018, published 2022).

Each structure is given as a SMILES string.

What is called IC50 is the midpoint of a concentration-inhibition curve. High values mean lower potency, low ones higher potency.

The target in the experiment is T1, hAhR (Homo sapiens, UniProt P35869).
T1 construct: Stably integrated DRE-luciferase cell lines were generated by transducing the both cell lines with Cignal XRE luciferase reporter (Qiagen) lentiviral particles; endogenous in cells
T1 sequence (P35869 11-848): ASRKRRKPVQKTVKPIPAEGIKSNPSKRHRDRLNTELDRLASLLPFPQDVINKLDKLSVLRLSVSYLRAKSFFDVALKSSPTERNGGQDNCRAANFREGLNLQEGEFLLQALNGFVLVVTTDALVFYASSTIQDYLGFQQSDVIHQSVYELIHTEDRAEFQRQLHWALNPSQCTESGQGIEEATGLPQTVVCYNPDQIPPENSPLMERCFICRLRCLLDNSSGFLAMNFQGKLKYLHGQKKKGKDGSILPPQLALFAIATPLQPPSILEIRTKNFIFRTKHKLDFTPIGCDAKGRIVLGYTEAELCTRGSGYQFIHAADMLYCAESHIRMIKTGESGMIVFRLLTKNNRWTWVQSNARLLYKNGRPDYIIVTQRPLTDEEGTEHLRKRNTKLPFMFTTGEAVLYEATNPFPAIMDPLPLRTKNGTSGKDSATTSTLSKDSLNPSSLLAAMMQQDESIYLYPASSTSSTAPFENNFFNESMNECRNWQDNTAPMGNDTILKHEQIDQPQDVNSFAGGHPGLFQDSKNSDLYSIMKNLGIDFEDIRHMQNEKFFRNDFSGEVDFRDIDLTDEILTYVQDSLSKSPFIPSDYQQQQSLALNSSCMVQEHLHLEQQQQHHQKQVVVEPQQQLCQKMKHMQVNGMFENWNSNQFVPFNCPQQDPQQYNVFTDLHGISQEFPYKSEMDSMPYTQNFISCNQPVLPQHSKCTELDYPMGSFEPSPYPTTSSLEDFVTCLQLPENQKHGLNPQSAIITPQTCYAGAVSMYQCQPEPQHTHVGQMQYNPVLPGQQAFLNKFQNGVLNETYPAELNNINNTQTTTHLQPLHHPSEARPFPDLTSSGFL
Nature of the experiment: AhR DRE-luciferase reporter transcriptional assay, antagonist mode (TCDD-induced). The settings on record: HEPG2 DRE-Luc cells, 3 nM TCDD, 24 hour incubation, relative IC50. It is filed as cell-based. In a few lines: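 HepG2 cells carrying a stably integrated DRE-luciferase reporter, in OptiMEM with 0.5% FBS; semi-log compound doses added with 3 nM TCDD, 24 h incubation, firefly luciferase read-out. Percent maximal activity normalised between vehicle ± TCDD; relative IC50 taken as half-reduction between curve plateaus.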
On the technique in general: Reporter assays use an easily measured gene product as a stand-in for the process of interest.

Molecule `Cc1ccc2nc(-c3ccc(NC(=O)c4ccnn4C)c(C)c3)ccc2c1` [Example 079, 1-methyl-N-(2-methyl-4-(6-methylquinolin-2-yl)phenyl)-1H-pyrazole-5-carboxamide] yielded an IC50 of 500 to 1000 nM. The figure for `Cc1cc(NC(=O)c2c(C)cnn2C)c(F)cc1-c1ccc2cc(C(F)(F)F)ccc2n1` [Example 207, N-(2-fluoro-5-methyl-4-(6-(trifluoromethyl)quinolin-2-yl)phenyl)-1,4-dimethyl-1H-pyrazole-5-carboxamide] is 200 to 500 nM; for `Cc1cc(-c2ccc3cc(F)ccc3n2)ccc1NC(=O)N1CCOCC1` [Example 041, N-(4-(6-fluoroquinolin-2-yl)-2-methylphenyl)morpholine-4-carboxamide] it is 1000 to 10000 nM. Then `Cc1cc(-c2ccc3cncc(C)c3c2)ccc1NC(=O)c1ccnn1C` [Example 061, 1-methyl-N-(2-methyl-4-(4-methylisoquinolin-6-yl)phenyl)-1H-pyrazole-5-carboxamide], with 500 to 1000 nM. `Cc1cc(C(=O)N(C)c2ccc(-c3ncc4nc(OC(F)(F)F)cc(C)c4n3)cc2C)ccn1` [Example 161, N,2-dimethyl-N-(2-methyl-4-(8-methyl-6-(trifluoromethoxy)pyrido[3,2-d]pyrimidin-2-yl)phenyl)isonicotinamide] gave an IC50 of 200 to 500 nM. Turning to `Cc1cc(C(F)(F)F)nc2cnc(-c3ccc(NC(=O)c4ccnn4C)c(F)c3)nc12` [Example 163, N-[2-fluoro-4-[8-methyl-6-(trifluoromethyl)pyrido[3,2-d]pyrimidin-2-yl]phenyl]-1-methyl-1H-pyrazole-5-carboxamide], the IC50 is < 200 nM.

Turning to `Cc1cc(-c2ncc3nc(C(F)(F)F)cc(C)c3n2)ccc1N(C)C(=O)c1cc(C(=O)O)nn1CC#N` [Example 197, 1-(cyanomethyl)-5-(methyl(2-methyl-4-(8-methyl-6-(trifluoromethyl)-pyrido[3,2-d]pyrimidin-2-yl)phenyl)carbamoyl)-1H-pyrazole-3-carboxylic acid], the IC50 fell in the range of 1000 to 10000 nM. Then `Cc1cc(-c2ncc3nc(C(F)(F)F)cc(C)c3n2)ccc1N(C)C(=O)c1cc(C(N)=O)nn1CCO` [Example 200, 1-(2-hydroxyethyl)-N5-methyl-N5-(2-methyl-4-(8-methyl-6-(trifluoromethyl)pyrido[3,2-d]pyrimidin-2-yl)phenyl)-1H-pyrazole-3,5-dicarboxamide], with < 200 nM. With `Cc1cc(-c2ncc3cc(C(F)(F)F)ccc3n2)ccc1N(C)C(=O)c1ccnn1CCO` [Example 211, 1-(2-hydroxyethyl)-N-methyl-N-(2-methyl-4-(6-(trifluoromethyl)quinazolin-2-yl)phenyl)-1H-pyrazole-5-carboxamide], the IC50 is < 200 nM.

Turning to `Cc1cc(C(F)(F)F)nc2cnc(-c3ccc(NC(=O)N4CCOCC4)c(F)c3)nc12` [Example 185, N-(2-fluoro-4-(8-methyl-6-(trifluoromethyl)pyrido[3,2-d]pyrimidin-2-yl)-phenyl)morpholine-4-carboxamide], the 50% inhibitory concentration (IC50) was < 200 nM. Regarding `Cc1cc(-c2ncc3nc(C(F)(F)F)cc(C)c3n2)c(F)cc1N(C)C(=O)c1ccnn1C` [Example 181, N-(5-fluoro-2-methyl-4-(8-methyl-6-(trifluoromethyl)pyrido[3,2-d]pyrimidin-2-yl)phenyl)-N,1-dimethyl-1H-pyrazole-5-carboxamide], the 50% inhibitory concentration (IC50) is < 200 nM. For the molecule `Cc1cc(-c2ncc3cc(C(F)(F)F)ccc3n2)ccc1N(C)C(=O)c1cnn[nH]1` [Example 146, N-methyl-N-(2-methyl-4-(6-(trifluoromethyl)quinazolin-2-yl)phenyl)-1H-1,2,3-triazole-5-carboxamide], the IC50 lay in the range of 1000 to 10000 nM. In turn, `Cc1cc(-c2ccc3cc(F)ccc3n2)ccc1NC(=O)c1cocn1` [Example 036, N-(4-(6-fluoroquinolin-2-yl)-2-methylphenyl)oxazole-4-carboxamide] displayed an IC50 of 500 to 1000 nM. The molecule `Cn1nccc1C(=O)Nc1ccc(-c2ccc3cc(F)ccc3n2)cc1C(F)(F)F` [Example 048, N-(4-(6-fluoroquinolin-2-yl)-2-(trifluoromethyl)phenyl)-1-methyl-1H-pyrazole-5-carboxamide] showed an IC50 of 1000 to 10000 nM.

Take `Cc1c(-c2ccc3cc(C(F)(F)F)ccc3n2)ccc(N(C)C(=O)c2ccnn2C)c1F` [Example 006, N-(2-fluoro-3-methyl-4-(6-(trifluoromethyl)quinolin-2-yl)phenyl)-N,1-dimethyl-1H-pyrazole-5-carboxamide]: the IC50 lay in the range of 1000 to 10000 nM. With `Cc1cc(-c2ncc3cc(C(F)(F)F)ccc3n2)ccc1N(C)C(=O)c1cnc[nH]1` [Example 131, N-methyl-N-(2-methyl-4-(6-(trifluoromethyl)quinazolin-2-yl)phenyl)-1H-imidazole-5-carboxamide], the IC50 lay in the range of 200 to 500 nM.

Take `Cc1cc(-c2ccc3cc(C(F)(F)F)ccc3n2)ccc1N(C)C(=O)c1ccn[nH]1` [Example 205, N-methyl-N-[2-methyl-4-[6-(trifluoromethyl)quinolin-2-yl]phenyl]-1H-pyrazole-5-carboxamide]: the IC50 was 500 to 1000 nM. As to `Cc1cc(-c2ncc3cc(C(F)(F)F)ccc3n2)ccc1NC(=O)c1ncncc1C` [Example 123, 5-methyl-N-(2-methyl-4-(6-(trifluoromethyl)quinazolin-2-yl)phenyl)pyrimidine-4-carboxamide], the IC50 was in the range of 500 to 1000 nM. The figure for `Cc1cc(-c2ccc3cc(F)cc(C(C)C)c3n2)ccc1NC(=O)c1ccnn1C` [Example 055, N-(4-(6-fluoro-8-isopropylquinolin-2-yl)-2-methylphenyl)-1-methyl-1H-pyrazole-5-carboxamide] is 1000 to 10000 nM; for `COC(=O)N(C)c1ccc(-c2ncc3cc(C(F)(F)F)ccc3n2)cc1C` [Example 128, methyl methyl(2-methyl-4-(6-(trifluoromethyl)quinazolin-2-yl)phenyl)carbamate] it is < 200 nM; for `Cc1cc(-c2ccc3ccccc3n2)ccc1NC(=O)c1ccnn1C` [Example 070, 1-methyl-N-(2-methyl-4-(quinolin-2-yl)phenyl)-1H-pyrazole-5-carboxamide] it is 500 to 1000 nM.

In the case of `Cc1cc(-c2ncc3cc(C(F)(F)F)ccc3n2)ccc1N(C)C(=O)c1ncn[nH]1` [Example 134, N-methyl-N-(2-methyl-4-(6-(trifluoromethyl)quinazolin-2-yl)phenyl)-1H-1,2,4-triazole-5-carboxamide], the IC50 fell in the range of 200 to 500 nM. Then `Cc1cc(-c2ccc3cc(C(F)(F)F)ccc3n2)ccc1N(C)C(=O)c1ccnn1CCO` [Example 209, 1-(2-hydroxyethyl)-N-methyl-N-(2-methyl-4-(6-(trifluoromethyl)quinolin-2-yl)phenyl)-1H-pyrazole-5-carboxamide], with < 200 nM.

As for `Cc1cc(-c2ncc3nc(C(F)(F)F)cc(C)c3n2)ccc1NC(=O)c1ccnn1CC(N)=O` [Example 170, 1-(2-amino-2-oxoethyl)-N-(2-methyl-4-(8-methyl-6-(trifluoromethyl)-pyrido[3,2-d]pyrimidin-2-yl)phenyl)-1H-pyrazole-5-carboxamide], the IC50 is < 200 nM. Then `Cc1cc(C(=O)Nc2ccc(-c3ncc4nc(OC(F)(F)F)cc(C)c4n3)cc2C)ccn1` [Example 160, 2-methyl-N-(2-methyl-4-(8-methyl-6-(trifluoromethoxy)pyrido[3,2-d]-pyrimidin-2-yl)phenyl)isonicotinamide], with < 200 nM. For `Cc1cc(-c2ncc3nc(C(F)(F)F)cc(C)c3n2)ccc1N(C)C(=O)c1ccnn1CC(C)O` (centres unmarked) [Example 192, 1-(2-hydroxypropyl)-N-methyl-N-(2-methyl-4-(8-methyl-6-(trifluoromethyl)pyrido[3,2-d]pyrimidin-2-yl)phenyl)-1H-pyrazole-5-carboxamide], the IC50 was < 200 nM. In turn, `Cc1cc(NC(=O)c2ccnn2C)ncc1-c1ccc2cc(F)ccc2n1` [Example 043, N-(5-(6-fluoroquinolin-2-yl)-4-methylpyridin-2-yl)-1-methyl-1H-pyrazole-5-carboxamide] returned an IC50 of 1000 to 10000 nM. `Cc1cc(-c2ccc3cc(F)ccc3n2)ccc1NC(=O)c1ccnn1C` [Example 014, N-(4-(6-fluoroquinolin-2-yl)-2-methylphenyl)-1-methyl-1H-pyrazole-5-carboxamide] came in with an IC50 of 200 to 500 nM.

Consider `Cc1cc(-c2ncc3cc(C(F)(F)F)ccc3n2)ccc1N(C)C(=O)c1ccnn1CC(N)=O` [Example 156, 1-(2-amino-2-oxoethyl)-N-methyl-N-(2-methyl-4-(6-(trifluoromethyl)quinazolin-2-yl)phenyl)-1H-pyrazole-5-carboxamide], for which the IC50 is < 200 nM.
